System: ob/ob mouse
Assay: Leptin administration for four weeks in ob/ob mouse, bone measured by peripheral quantitative computerized tomography
Assay type: in vivo
Excerpt: Administration of leptin for four weeks increased femur length by 6% and increased cortical bone volumetric content by 18%, as determined by peripheral quantitative computerized tomography.

[1] = peripheral quantitative computerized tomography

leptin: a product of the obese gene, a 16 kDa protein produced by mature adipocytes and secreted in plasma
increase in femur length: 6%
bone volumetric density [1]: unchanged
increase in cortical bone volumetric content [1]: 18%
